Laboratory results reported in ChEMBL document CHEMBL1201862, “PubChem BioAssay data set” (2004).
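Method: 48-hour compound exposure of cells in 96-well plates, five concentrations, linear interpolation of endpoints. At the GI50, growth is halved.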 Activity calls are given as the source filed them. Cut-off read from the data, not from the text of the source: active = GI50 up to about 1.1 µM and inactive = higher.

Assays:
Assay in all cases: NCI tumour cell line growth inhibition, 48 h
HOP-62 = test system: HOP-62
OVCAR-3 = test system: OVCAR-3
MCF7 = test system: MCF7
UACC-257 = test system: UACC-257
UACC-62 = test system: UACC-62
NCI/ADR-RES = test system: NCI/ADR-RES
SK-MEL-2 = test system: SK-MEL-2
OVCAR-4 = test system: OVCAR-4
Hs-578T = test system: Hs-578T
A549 = test system: A549
PC-3 = test system: PC-3
T47D = test system: T47D
K562 = test system: K562
786-0 = test system: 786-0
UO-31 = test system: UO-31
SNB-19 = test system: SNB-19
SF-539 = test system: SF-539
MDA-MB-435 = test system: MDA-MB-435
M14 = test system: M14

Measured: GI50

N=C(N)SCc1ccc2c(c1)S(=O)(=O)c1ccccc1O2
inactive: HOP-62 19 µM | OVCAR-3 17 µM | MCF7 14.5 µM | UACC-257 16.3 µM | UACC-62 15.8 µM | NCI/ADR-RES 39.8 µM | SK-MEL-2 16.4 µM | OVCAR-4 22.3 µM | Hs-578T 22.9 µM | A549 19 µM | PC-3 17.7 µM | T47D 22.5 µM | K562 26.7 µM | 786-0 33.6 µM | UO-31 15.2 µM | SNB-19 61.1 µM | SF-539 26.1 µM | MDA-MB-435 15.5 µM | M14 20.5 µM

COC1=C(OC)C(=O)C(Cc2c(C)nc3sc(C)cn23)=C(C)C1=O
inactive: HOP-62 18.5 µM | OVCAR-3 17.5 µM | MCF7 20.5 µM | UACC-257 12.8 µM | UACC-62 14 µM | NCI/ADR-RES 15.9 µM | SK-MEL-2 17.4 µM | OVCAR-4 10.9 µM | Hs-578T 23.9 µM | A549 19.5 µM | PC-3 23.4 µM | T47D 34.1 µM | K562 16.9 µM | 786-0 19.7 µM | UO-31 16.8 µM | SNB-19 19 µM | SF-539 17.4 µM | MDA-MB-435 17.9 µM | M14 17 µM

COC(=O)/C=C1/OC(c2ccc(Br)cc2)=C(Br)C1=O
inactive: HOP-62 7.57 µM | OVCAR-3 4.35 µM | MCF7 10.5 µM | UACC-257 13.3 µM | UACC-62 7.05 µM | NCI/ADR-RES 9.4 µM | SK-MEL-2 10.6 µM | OVCAR-4 5.16 µM | Hs-578T 8.38 µM | A549 16 µM | PC-3 6.93 µM | T47D 5.55 µM | K562 2.47 µM | 786-0 2.4 µM | UO-31 11.7 µM | SNB-19 10.4 µM | SF-539 5.94 µM | MDA-MB-435 7.67 µM | M14 4.93 µM

COc1cc(S(=O)(=O)Nc2nc(-c3ccc(N4C(=O)/C(=C/C=C/c5ccccc5)N=C4c4ccccc4)cc3)cs2)ccc1Cl
inactive: HOP-62 > 100 µM | OVCAR-3 > 100 µM | MCF7 43 µM | UACC-257 > 100 µM | UACC-62 35 µM | NCI/ADR-RES > 100 µM | SK-MEL-2 78.3 µM | OVCAR-4 > 100 µM | Hs-578T 36.2 µM | A549 > 100 µM | PC-3 > 100 µM | T47D 48.1 µM | K562 72.3 µM | 786-0 > 100 µM | UO-31 > 100 µM | SNB-19 99.3 µM | SF-539 > 100 µM | MDA-MB-435 > 100 µM | M14 > 100 µM

CS(=O)(=O)OCCN(CCOS(C)(=O)=O)c1ccc(/C=N/c2ccc(-c3csc(Cc4ccccc4)n3)cc2)c(Cl)c1
inactive: HOP-62 13 µM | OVCAR-3 17.7 µM | MCF7 2.65 µM | UACC-257 3.83 µM | UACC-62 6.5 µM | NCI/ADR-RES 23.2 µM | SK-MEL-2 > 46 µM | OVCAR-4 31.7 µM | Hs-578T 28.4 µM | A549 11.6 µM | PC-3 22.5 µM | T47D 30.8 µM | K562 12.5 µM | 786-0 23 µM | UO-31 26.4 µM | SNB-19 > 45.3 µM | SF-539 22.8 µM | MDA-MB-435 21 µM | M14 25.3 µM

CCOC(=O)c1c(O)nc2cccc3c2c1-c1cccnc1S3
inactive: HOP-62 25.5 µM | OVCAR-3 28.6 µM | MCF7 1.14 µM | UACC-257 37.6 µM | UACC-62 16.3 µM | NCI/ADR-RES 33.1 µM | SK-MEL-2 56.1 µM | OVCAR-4 33.1 µM | Hs-578T 22.4 µM | A549 18.9 µM | PC-3 15.8 µM | T47D 9.86 µM | K562 32.1 µM | 786-0 36 µM | UO-31 23 µM | SNB-19 33.8 µM | SF-539 27.6 µM | MDA-MB-435 28.8 µM | M14 32.7 µM

OC1(c2cccs2)c2cccc(Cl)c2C(O)(c2cccs2)c2c(Cl)cccc21 (stereo not drawn)
inactive: HOP-62 57.9 µM | OVCAR-3 > 100 µM | MCF7 > 100 µM | UACC-257 > 100 µM | UACC-62 34.3 µM | NCI/ADR-RES 63.5 µM | SK-MEL-2 37.2 µM | OVCAR-4 > 100 µM | Hs-578T 9.84 µM | A549 > 100 µM | PC-3 99.3 µM | T47D > 100 µM | K562 > 100 µM | 786-0 34.4 µM | UO-31 > 100 µM | SNB-19 33.2 µM | SF-539 37 µM | MDA-MB-435 > 100 µM | M14 > 100 µM
